From ChEMBL document CHEMBL5137078, “Lysine-Tethered Stable Bicyclic Cationic Antimicrobial Peptide Combats Bacterial Infection in Vivo” (J Med Chem, 2022)
Converted amounts (≈) assume the structure as drawn.

Columns and labels:
Type in all cases: functional
Pseudomonas aeruginosa [1] = assay: Antibacterial activity against Pseudomonas aeruginosa BNCC 125486 measured after 16 hrs by microdilution assay
Staphylococcus aureus [2] = assay: Antibacterial activity against Staphylococcus aureus BNCC 186335 measured after 16 hrs by microdilution assay
Escherichia coli [3] = assay: Antibacterial activity against multidrug-resistant Escherichia coli BNCC 133264 measured after 16 hrs by microdilution assay
Acinetobacter baumannii = assay: Antibacterial activity against multidrug-resistant Acinetobacter baumannii measured after 16 hrs by microdilution assay
Pseudomonas aeruginosa [4] = assay: Antibacterial activity against multidrug-resistant Pseudomonas aeruginosa BNCC 125486 measured after 16 hrs by microdilution assay
Staphylococcus aureus [5] = assay: Antibacterial activity against methicillin-resistant Staphylococcus aureus BNCC 186335 measured after 16 hrs by microdilution assay
Escherichia coli [6] = assay: Antibacterial activity against Escherichia coli BNCC 133264 measured after 16 hrs by microdilution assay
Listeria monocytogenes = assay: Antibacterial activity against Listeria monocytogenes measured after 16 hrs by microdilution assay

SMILES	MIC99.9 (Pseudomonas aeruginosa [1]) [µg/mL]	MIC99.9 (Staphylococcus aureus [2]) [µg/mL]	MIC99.9 (Escherichia coli [3]) [µg/mL]	MIC99.9 (Acinetobacter baumannii) [µg/mL]	MIC99.9 (Pseudomonas aeruginosa [4]) [µg/mL]	MIC99.9 (Staphylococcus aureus [5]) [µg/mL]	MIC99.9 (Escherichia coli [6]) [µg/mL]	MIC99.9 (Listeria monocytogenes) [µg/mL]
CCN1CCN(C(=O)N[C@@H](C(=O)N[C@@H]2C(=O)N3C(C(=O)O)=C(CSc4nnnn4C)CS[C@H]23)c2ccc(O)cc2)C(=O)C1=O [CEFOPERAZONE]	2 (≈ 3.1 µM)	<1	>128	>128	128 (≈ 198 µM)	>128	<1	16 (≈ 24.8 µM)
CN[C@H](CC(C)C)C(=O)N[C@H]1C(=O)N[C@@H](CC(N)=O)C(=O)N[C@H]2C(=O)N[C@H]3C(=O)N[C@H](C(=O)N[C@H](C(=O)O)c4cc(O)cc(O)c4-c4cc3ccc4O)[C@H](O)c3ccc(c(Cl)c3)Oc3cc2cc(c3O[C@@H]2O[C@H](CO)[C@@H](O)[C@H](O)[C@H]2O[C@H]2C[C@](C)(N)[C@H](O)[C@H](C)O2)Oc2ccc(cc2Cl)[C@H]1O [VANCOMYCIN]	>128	2 (≈ 1.38 µM)	>128	>128	>128	2 (≈ 1.38 µM)	>128	1 (≈ 0.69 µM)
